{"source": "patent US11707511B2", "about": "“Vaccine compositions and methods of using the same” (The Board of Supervisors of Louisiana State University and …, priority 2017, dated 2023)", "molecules": {"B1": {"name": "2D5F7: IgG2b mAb of hybridoma 2D5F7, specific for Fba peptide; VH SEQ ID NO: 68, VL SEQ ID NO: 70 (antibody, V domains shown)", "VH": "MERHWIFLFLLSVTAGVHSQVQLQQSAAELARPGASVKMSCKASGYTFSSYTMHWVKQRPGQGLEWIGYINPSSGYTDYNQKFKDKTTLTADKSSSTAYMQLSSLTSEDSAVYYCARLYDNYDYYAMDYWGQGTSVTVSS", "VL": "MDSQAQVLILLLLWVSGTCGDIVMSQSPSSLAVSAGEKVTMSCKSSQSLLNSRIRKNYLAWYQQKPGQSPKLLIYWASTRESGVPDRFTGSGSGTDFTLTISSVQADDLAVYYCKQSYNLLTFGAGTKLELK"}, "B2": {"name": "6H1G8: IgG2b mAb of hybridoma 6H1G8, specific for Hwp1 peptide (antibody)", "heavy": "EVQLQQSGPELVKPGASVKISCKASGYSITGYYMHWVKQSHVKSLEWIGRINPYTGATSYTQNFKDKASLTVDKSSSTAYMELLSLKSEDSAVYYCAKGGGRSSYWYFDVWGAGTAVTVSSAKTTPPSVYPLAPGCGDTTGSSVTLGCLVKGYFPESVTVTWNSGSLSSSVHTFPALLQSGLYTMSSSVTVPSSTWPSQTVTCSVAHPASSTTVDKKLEPSGPISTINPCPPCKECHKCPAPNLEGGPSVFIFPPNIKDVLMISLTPKVTCVVVDVSEDDPDVQISWFVNNVEVHTAQTQTHREDYNSTIRVVSTLPIQHQDWMSGKEFKCKVNNKDLPSPIERTISKIKGLVRAPQVYILPPPAEQLSRKDVSLTCLVVGFNPGDISVEWTSNGHTEENYKDTAPVLDSDGSYFIYSKLNMKTSKWEKTDSFSCNVRHEGLKNYYLKKTISRSPGK", "light": "DIQMTQTTSSLSASLGDRVTISCSASQAISNYLNWYQQKPDGTIKLLIYYTSSLHSGVPSRFSGSGSGTDYSLTISNLEPEDIATYYCQQYSKLPWTFGGGTKLEIKRADAAPTVSIFPPSSEQLTSGGASVVCFLNNFYPKDINVKWKIDGSERQNGVLNSWTDQDSKDSTYSMSSTLTLTKDEYERHNSYTCEATHKTSTSPIVKSFNRNEC"}}, "key": {"C. albicans": {"tested_on": "C. albicans", "assay": "Universal double chimeric peptide vaccines, protection against candidiasis in mouse model", "format": "in vivo, Candida albicans", "conditions": "Table 11; double peptide vaccine formula feasible for human use", "from_the_text": "Each chimeric peptide conjugate comprises two peptide epitopes."}, "C. albicans 3153A": {"tested_on": "C. albicans 3153A", "assay": "Passive transfer of mAbs or mAb cocktails i.p. before lethal i.v. challenge, mouse model of human disseminated candidiasis", "format": "in vivo, Candida albicans", "conditions": "Table 14; for Protection of adsorbed mAb: mAb removed by absorption with Candida cells before transfer; for Protection / Protection (grade word): single mAb, C. albicans", "method": "Passive transfer of MAbs by intraperitoneal (i.p.) route. The preventive effect of peptide-specific mAbs listed in Table 3 and Table 4 in naïve mice was examined by passive transfer experiments. […] For testing, mice received 0.5 ml of each mAb or 1 ml of two mAbs in combination (0.5 ml of each) intraperitoneally. […] The negative control materials tested in mice were single mAb or DPBS. Control mice received 0.5 ml of the DPBS diluents or single mAb treatment. For each condition, 6- to 8-week-old female BALB/c mice (NCI) were given 0.5 ml of test mAb, or 1 ml two mAb cocktails or control materials intraperitoneally, followed 4 h later by 0.1 ml intravenously of defined lethal dose of yeast cells per milliliter of DPBS. Mice were divided into groups with five mice each and three independent experiments were carried out. In some experiments, mice were given the same dose of mAbs or control materials on every other day post-challenge for two weeks, as compared to the protective efficacy of mAb in combinations. All mice were sacrificed on day 50. For animal groups that were challenged non-albicans candida species, determined optimal challenge doses were applied for each candida strain.\nThe hybridoma clones that produce the universal peptide specific mAbs listed above were generated from mice vaccinated with peptide-pulsed dendritic cell (DC) preparation as described previously (6). The isotype of mAb was determined with a Mouse Monoclonal Antibody Isotyping Kit (Pierce, USA). […] In detail, BALB/c mice were given an i.p dose of each mAb four hours before hematogenous challenged with a lethal dose of C. albicans3153A cells. […] Importantly, passive protection was prevented by removal of the mAbs by absorption with Candida cells before transfer, which provided strong additional evidence for the protection being due to the mAb.\nThe three cell wall proteins were selected because of expression during human candidiasis and cell wall association, and included fructose-bisphosphate aldolase (Fba); methyltetrahydropteroyltriglutamate-homocysteine methyltransferase (Met6); hyphal wall protein-1 (Hwp1). The hybridoma clones listed at Table 5, which produce the peptide specific mAbs, were generated from mice vaccinated with peptide-pulsed dendritic cell (DC) preparation as described previously (6). The isotype of mAb was determined with a Mouse Monoclonal Antibody Isotyping Kit (Pierce, USA). […] Importantly, passive protection was prevented by removal of the mAbs by absorption with Candida cells before transfer, which provided strong additional evidence for the protection being due to the mAb).\nThe preventive effect of each universal peptide-specific mAb was examined by passive transfer experiments. […] For testing, 5 mice of each tested group received 0.5 ml of each mAb intraperitoneally. The negative control materials tested in mice were mAbs absorbed with C. albicans yeast cells (3153A) and DPBS. Control mice received 0.5 ml of the DPBS diluents or adsorbed mAb solution. For each condition, 6- to 8-week-old female BALB/c mice (NCI) were given 0.5 ml of test mAb, or control materials intraperitoneally, followed 4 h later by 0.1 ml intravenously of a suspension containing lethal dose of Candida cells per milliliter of DPBS. Mice were divided into groups with five mice each and three independent experiments were carried out. We have developed neutropenic murine models of disseminated infection by C. glabrata, C. tropicalis and C. parapsilosis. To induce neutropenia, naïve mice received a 200 mg/kg dose of cyclophosphamide (CY) by i.p. on day −3. Prolonged neutropenia were maintained for 30-50 days by giving each animal a 150 mg/kg dose of CY by i.p. every 10 days after infection."}, "C. auris AR-0386": {"tested_on": "C. auris AR-0386", "assay": "Passive transfer of mAbs or two mAbs in combination in A/J mouse model of invasive C. auris infection", "format": "in vivo, Candida auris", "method": "A. Complement protein C5-defecient A/J mice were treated with one of the five mAb or with DPBS as a vehicle control. The following day, mice were challenged with 1×10^8 C. auris cells/100 ul DPBS dose per mouse. […] B. Fungal burdens in the kidneys (top), heard (center), and brain (bottom).\nIdentified protective mAbs were obtained by use of standard hybridoma technique and purified by use of protein A/G. A/J mice were given an i.p. dose of either single mAb or two mAbs in combination 24 hours before hematogensous challenge with a lethal dose (2×108) of C. auris AR-0386 live cells. Mice received either 9G2F5 alone or 6H1G8 alone or 9F2G5 and 3H7E3 in combination had 40% survival rate respectively, with prolonged survival as compared to control animals that received DPBS buffer control.\nEvaluation and validation of a panel of peptide-specific monoclonal antibodies (mAbs) as a passive immunization strategy protect against invasive C. auris infection in established A/J mouse model of human disease.\nThe monoclonal antibodies used in this experiment were: • 6H1G8 (IgG2b), α-Hwp1 (Hyphal wall protein) • 3E2G2 (IgG2b), α-Fba (Fructose bisphosphate aldolase) • 10E7E2 (IgG1), α-GPV-P3 (General peptide vaccine 3 from Phosphoglycerate kinase) • 9F2G5 (IgG2a), α-Pgk1 (Phosphoglycerate kinase) • 3H7E3 (IgG1), α-Met6 (Methyltetrahydropteroyltriglutamate)"}}, "note": "Entries after “also recorded” stand apart in the source; their conditions may differ.", "data": [{"molecule": "PADRE-GPV-M1-GPSL-GPV-P1: double peptide vaccine 1; amidation (C-terminus) and acetylation (N-terminus) (Ac-AKFVAAWTLKAAACFWVNPDCGLKTRGPSLCAILGGSKVSDKI-NH2; cysteine pairing not given here)", "values": [{"measurement": "Protection against Candidiasis in mouse model", "setting": "C. albicans", "value": "60-90%"}, {"measurement": "Protection against Candidiasis in mouse model (grade word)", "setting": "C. albicans", "value": "High"}]}, {"molecule": "PADRE-GPV-M2-KK-GPV-P1: double peptide vaccine 10; amidation (C-terminus) and acetylation (N-terminus) (Ac-AKFVAAWTLKAAACTTTIGSFPQTKDIRKKCAILGGSKVSDKI-NH2; cysteine pairing not given here)", "values": [{"measurement": "Protection against Candidiasis in mouse model", "setting": "C. albicans", "value": "20-40%"}, {"measurement": "Protection against Candidiasis in mouse model (grade word)", "setting": "C. albicans", "value": "Low"}]}, {"molecule": "RGD-PADRE-GPV-M2-KK-GPV-P3: double peptide vaccine 11; amidation (C-terminus) and acetylation (N-terminus) (Ac-RGDAKFVAAWTLKAAACTTTIGSFPQTKDIRKKCIVIIGGGDTATVAKK-NH2; cysteine pairing not given here)", "values": [{"measurement": "Protection against Candidiasis in mouse model", "setting": "C. albicans", "value": "80-100%"}, {"measurement": "Protection against Candidiasis in mouse model (grade word)", "setting": "C. albicans", "value": "High"}]}, {"molecule": "RGD-TT830-844-KK-GPV-P3-KK-GPV-M1: double peptide vaccine 8; amidation (C-terminus) and acetylation (N-terminus) (Ac-RGDQYIKANSKFIGITEKKCIVIIGGGDTATVAKKKKCFWVNPDCGLKTR-NH2; cysteine pairing not given here)", "values": [{"measurement": "Protection against Candidiasis in mouse model", "setting": "C. albicans", "value": "80-100%"}, {"measurement": "Protection against Candidiasis in mouse model (grade word)", "setting": "C. albicans", "value": "High"}]}, {"molecule": "TT830-844-GPSL-GPV-M1-GPSL-GPV-P1: double peptide vaccine 2; amidation (C-terminus) and acetylation (N-terminus) (Ac-QYIKANSKFIGITEGPSLCFWVNPDCGLKTRGPSLCAILGGSKVSDKI-NH2; cysteine pairing not given here)", "values": [{"measurement": "Protection against Candidiasis in mouse model", "setting": "C. albicans", "value": "40-60%"}, {"measurement": "Protection against Candidiasis in mouse model (grade word)", "setting": "C. albicans", "value": "medium"}]}, {"molecule": "RGD-GPV-P3-KK-GPV-M2: double peptide vaccine 4; amidation (C-terminus) and acetylation (N-terminus) (Ac-RGDCIVIIGGGDTATVAKKKKCTTTIGSFPQTKDIR-NH2; cysteine pairing not given here)", "values": [{"measurement": "Protection against Candidiasis in mouse model", "setting": "C. albicans", "value": "70-90%"}, {"measurement": "Protection against Candidiasis in mouse model (grade word)", "setting": "C. albicans", "value": "High"}]}, {"molecule": "TT947-967-KK-GPV-P3-KK-GPV-M1: double peptide vaccine 7; amidation (C-terminus) and acetylation (N-terminus) (Ac-FNNFTVSFWLRVPKVSASHLEKKCIVIIGGGDTATVAKKKKCFWVNPDCGLKTR-NH2; cysteine pairing not given here)", "values": [{"measurement": "Protection against Candidiasis in mouse model", "setting": "C. albicans", "value": "70-90%"}, {"measurement": "Protection against Candidiasis in mouse model (grade word)", "setting": "C. albicans", "value": "High"}]}, {"molecule": "RGD-TT947-967-KK-GPV-P3-KK-GPV-M1: double peptide vaccine 9; amidation (C-terminus) and acetylation (N-terminus) (Ac-RGDFNNFTVSFWLRVPKVSASHLEKKCIVIIGGGDTATVAKKKKCFWVNPDCGLKTR-NH2; cysteine pairing not given here)", "values": [{"measurement": "Protection against Candidiasis in mouse model", "setting": "C. albicans", "value": "20-40%"}, {"measurement": "Protection against Candidiasis in mouse model (grade word)", "setting": "C. albicans", "value": "Low"}]}, {"molecule": "TT947-967-GPSL-GPV-M1-GPSL-GPV-P1: double peptide vaccine 3; amidation (C-terminus) and acetylation (N-terminus) (Ac-FNNFTVSFWLRVPKVSASHLEGPSLCFWVNPDCGLKTRGPSLCAILGGSKVSDKI-NH2; cysteine pairing not given here)", "values": [{"measurement": "Protection against Candidiasis in mouse model", "setting": "C. albicans", "value": "40-60%"}, {"measurement": "Protection against Candidiasis in mouse model (grade word)", "setting": "C. albicans", "value": "medium"}]}, {"molecule": "TT830-844-KK-GPV-P3-KK-GPV-M2: double peptide vaccine 6; amidation (C-terminus) and acetylation (N-terminus) (Ac-QYIKANSKFIGITEKKCIVIIGGGDTATVAKKKKCTTTIGSFPQTKDIR-NH2; cysteine pairing not given here)", "values": [{"measurement": "Protection against Candidiasis in mouse model", "setting": "C. albicans", "value": "40-60%"}, {"measurement": "Protection against Candidiasis in mouse model (grade word)", "setting": "C. albicans", "value": "medium"}]}, {"molecule": "B1", "values": [{"measurement": "Protection of adsorbed mAb", "setting": "C. albicans 3153A", "value": "None"}, {"measurement": "Protection", "setting": "C. albicans 3153A", "value": "(90-100%)"}, {"measurement": "Protection (grade word)", "setting": "C. albicans 3153A", "value": "High"}]}, {"molecule": "B2", "values": [{"measurement": "Protection of adsorbed mAb", "setting": "C. albicans 3153A", "value": "None"}, {"measurement": "Protection", "setting": "C. albicans 3153A", "value": "(70-80%)"}, {"measurement": "Protection (grade word)", "setting": "C. albicans 3153A", "value": "High"}, {"measurement": "fungal burdens in targeted organs", "setting": "C. auris AR-0386; A/J mouse model, in words", "value": "lowest fungal burdens in all organs; also recorded: able to almost clear fungal burden"}, {"measurement": "protection against C. auris invasive infection", "setting": "C. auris AR-0386; A/J mouse model, in words", "value": "protect against C. auris invasive infection; also recorded: best protection"}, {"measurement": "survival", "setting": "C. auris AR-0386; FIG. 15A, A/J mice, 1×10^8 C. auris cells, experiment terminated 40 days post challenge", "value": 50, "unit": "%"}, {"measurement": "fungal burden in the kidneys", "setting": "C. auris AR-0386; FIG. 15B, one treated mouse", "value": "Non-detectible levels of fungal burden"}, {"measurement": "fungal burden in the heart and brain", "setting": "C. auris AR-0386; FIG. 15B, several mice", "value": "non-detectible levels of fungal burden"}, {"measurement": "survival rate", "setting": "C. auris AR-0386; FIG. 16, A/J mice, mAb(s) i.p. 24 hours before lethal dose (2×108) of C. auris AR-0386", "value": 40, "unit": "%"}]}]}
